Data reported in publication PMC7006680, “Sulfocoumarins as dual inhibitors of human carbonic anhydrase isoforms IX/XII and of human thioredoxin reductase” (Journal of Enzyme Inhibition and Medicinal Chemistry, 2020).

Tests used:
hCA I = biological target: T1, hCA I (Homo sapiens, UniProt P00915); assay: Stopped-flow CO2 hydration CA inhibition assay, hCA I; type: biochemical; conditions: recombinant enzyme, 15 min pre-incubation
T1 construct: made in house
Method: (§1) An Applied Photophysics stopped-flow instrument has been used for assaying the CA catalysed CO2 hydration activity[22]. Phenol red (at a concentration of 0.2 mM) has been used as indicator, working at the absorbance maximum of 557 nm, with 20 mM Tris (pH 8.3) as buffer, and 20 mM Na2SO4 (for maintaining constant the ionic strength), following the initial rates of the CA-catalysed CO2 hydration reaction for a period of 10–100 s. The CO2 concentrations ranged from 1.7 to 17 mM for the determination of the kinetic parameters and inhibition constants. […] The uncatalysed rates were determined in the same manner and subtracted from the total observed rates. Stock solutions of inhibitor (0.1 mM) were prepared in distilled-deionised water and dilutions up to 0.005 nM were done thereafter with the assay buffer. Inhibitor and enzyme solutions were pre-incubated together for 15 min at room temperature prior to assay, in order to allow for the formation of the E–I complex. The inhibition constants were obtained by non-linear least-squares methods using PRISM 3 and the Cheng-Prusoff equation, as reported earlier, and represent the mean from at least three different determinations.

hCA II = biological target: T2, hCA II (Homo sapiens, UniProt P00918); assay: Stopped-flow CO2 hydration CA inhibition assay, hCA II; type: biochemical; conditions: recombinant enzyme, 15 min pre-incubation
T2 construct: made in house
Method: as §1

TrxR = biological target: T3, TrxR (Homo sapiens, UniProt Q16881); assay: TrxR activity by DTNB reduction assay in SHSY5Y cell lysate; type: biochemical
T3 sequence (Q16881 1-649): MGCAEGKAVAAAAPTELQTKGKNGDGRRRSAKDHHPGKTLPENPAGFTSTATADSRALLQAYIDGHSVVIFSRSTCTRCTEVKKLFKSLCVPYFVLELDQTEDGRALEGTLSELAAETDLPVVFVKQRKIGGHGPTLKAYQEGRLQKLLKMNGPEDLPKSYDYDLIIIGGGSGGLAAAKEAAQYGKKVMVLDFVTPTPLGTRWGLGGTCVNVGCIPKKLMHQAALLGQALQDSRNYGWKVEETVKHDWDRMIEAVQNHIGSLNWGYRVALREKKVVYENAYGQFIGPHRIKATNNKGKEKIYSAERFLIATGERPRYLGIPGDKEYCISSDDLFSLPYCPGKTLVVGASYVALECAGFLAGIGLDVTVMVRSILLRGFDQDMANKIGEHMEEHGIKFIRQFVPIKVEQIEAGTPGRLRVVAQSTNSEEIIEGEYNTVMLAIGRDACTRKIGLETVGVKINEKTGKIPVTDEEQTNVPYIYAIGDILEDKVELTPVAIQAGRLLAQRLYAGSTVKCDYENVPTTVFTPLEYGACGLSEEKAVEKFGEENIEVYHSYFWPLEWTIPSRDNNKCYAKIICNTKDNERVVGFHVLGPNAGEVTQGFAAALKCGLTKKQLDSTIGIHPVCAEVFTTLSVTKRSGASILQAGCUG
Method: Determination of TrxR activity in SHSY5Y cell lysate. TrxR activity in cell lysate was measured in 96-well plates using previously described methods[27]^,[28]. For TrxR activity measurement, compounds of different concentrations were incubated with 50 µg of cell lysate and 200 µM NADPH in a volume of 100 µL of 50 mM Tris–HCl and 1 mM EDTA, pH 7.5 (TE buffer), for different time points in 96-well plates at room temperature. […] TrxR activity was calculated as a percentage of enzyme activity of that of DMSO vehicle treated sample.

[1] = test system: MCF-7 (breast adenocarcinoma); assay: MTT cytotoxicity assay, MCF-7; type: cell-based, human
Method: (§2) About 2000–4000 cells per well (depending on line nature) were placed in 96-well plates and after 24 h compounds were added to the wells. Untreated cells were used as a control. The plates were incubated for 48 h, 37 °C, and 5% CO2. The number of surviving cells was determined using 3-(4,5-dimethylthiazol-2-yl)-2,5-diphenyltetrazolinium bromide (MTT). MTT-test: after incubating culture medium was removed and 200 µL fresh medium with 20 µL MTT (2 mg/mL in HBSS) was added in each well of the plate. After incubation (3 h, 37 °C, 5% CO2), the medium with MTT was removed and 200 µL DMSO were added at once to each sample. The samples were tested at 540 nm on Thermo Scientific Multiskan EX microplate photometer. The half-maximal inhibitory concentration (IC50) of each compound was calculated using Graph Pad Prism® 3.0 (GraphPad Software, La Jolla, CA).

[2] = test system: SHSY5Y (human neuroblastoma); assay: MTT cytotoxicity assay, SHSY5Y; type: cell-based; conditions: 48 h incubation
Method: as §2

[3] = test system: HT-1080 (human fibrosarcoma); assay: MTT cytotoxicity assay, HT-1080; type: cell-based
Method: as §2

hCA IX = biological target: T4, hCA IX (Homo sapiens, UniProt Q16790); assay: Stopped-flow CO2 hydration CA inhibition assay, hCA IX; type: biochemical; conditions: recombinant enzyme, 15 min pre-incubation
T4 construct: made in house
Method: as §1

hCA XII = biological target: T5, hCA XII (Homo sapiens, UniProt O43570); assay: Stopped-flow CO2 hydration CA inhibition assay, hCA XII; type: biochemical; conditions: recombinant enzyme, 15 min pre-incubation
T5 construct: made in house
T5 sequence (O43570 25-354): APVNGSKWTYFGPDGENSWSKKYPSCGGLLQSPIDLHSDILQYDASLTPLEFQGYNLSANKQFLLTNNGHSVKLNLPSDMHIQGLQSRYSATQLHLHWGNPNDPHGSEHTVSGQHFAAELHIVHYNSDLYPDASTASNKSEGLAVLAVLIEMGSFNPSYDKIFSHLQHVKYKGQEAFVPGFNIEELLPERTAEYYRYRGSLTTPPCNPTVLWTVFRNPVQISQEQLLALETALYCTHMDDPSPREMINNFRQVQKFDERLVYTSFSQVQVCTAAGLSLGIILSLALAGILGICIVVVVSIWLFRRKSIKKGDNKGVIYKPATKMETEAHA
Method: as §1

[4] = Homo sapiens, MCF7, 48 h incubation
[5] = Homo sapiens, HT-1080, 48 h incubation

T1 sequence (P00915 whole entry): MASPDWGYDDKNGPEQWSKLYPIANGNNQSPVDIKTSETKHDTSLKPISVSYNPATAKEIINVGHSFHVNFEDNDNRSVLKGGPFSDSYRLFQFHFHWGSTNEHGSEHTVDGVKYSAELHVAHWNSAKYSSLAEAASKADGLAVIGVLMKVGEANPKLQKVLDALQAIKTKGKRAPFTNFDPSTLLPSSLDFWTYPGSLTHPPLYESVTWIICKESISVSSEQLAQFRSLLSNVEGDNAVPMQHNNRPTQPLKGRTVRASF

| Compound | Ki (hCA I) | Ki (hCA II) | IC50 (TrxR) | IC50 ([1]; 48 h incubation) | IC50 [2] | IC50 ([3]; 48 h incubation) | IC50 [1, 4] | IC50 ([2]; Homo sapiens, SH-SY5Y) | IC50 [3, 5] | Ki (hCA IX) | Ki (hCA XII) |
| --- | --- | --- | --- | --- | --- | --- | --- | --- | --- | --- | --- |
| 1-(2,2-Dioxido-1,2-benzoxathiin-6-yl)-4-(4-fluorophenyl)-1H-1,2,3-triazole [Compound 1b] | > 10 µM | > 10 µM | 40 µM | – | – | – | – | – | – | – | – |
| 1-(2,2-Dioxido-1,2-benzoxathiin-6-yl)-5-(4-fluorophenyl)-1H-1,2,3-triazole [Compound 1d] | > 10 µM | > 10 µM | 125 µM | 50 µM | 18.5 µM | 7.9 µM | – | – | – | – | – |
| O=S1(=O)C=Cc2cc(-n3cc(-c4ccc(Cl)cc4)nn3)ccc2O1 [Compound 1a, 4-(4-Chlorophenyl)-1-(2,2-dioxido-1,2-benzoxathiin-6-yl)-1H-1,2,3-triazole] | – | – | – | – | – | – | 1.8 µM | 22 µM | 11 µM | 0.0078 µM | 0.0177 µM |
| O=S1(=O)C=Cc2cc(-c3nnnn3-c3ccccc3)ccc2O1 [Compound 1c, 5-(2,2-Dioxido-1,2-benzoxathiin-6-yl)-1-phenyl-1H-tetrazole] | – | – | – | – | – | – | 101 µM | 18.4 µM | 12.3 µM | 0.0085 µM | 0.0071 µM |
